Test results from patent US8609656B2, “Heteroarylphenylurea derivative” (Chugai Seiyaku Kabushiki Kaisha, priority 2004, dated 2013).
Converted amounts (≈) assume the structure as drawn. Where a name gives a salt, the structure may show the parent alone.

Key:
[1] = tested on: VEGF non-dependent human umbilical vein endothelial cells (HUVEC); test: Cell growth inhibition test, VEGF non-dependent HUVEC; assay type: cell-based; settings: 72 hours, WST-1, read-out: HUVEC (VEGF Nondependence), 50% Growth Inhibition Concentration (IC50 value)
Experimental: (§1) Cell Growth Inhibition Test
(§2) With respect to the compounds relating to the present invention and the known compound (BAY 43-9006), cell growth inhibition activity was measured.
(§3) A sample compound was in-series diluted with dimethyl sulfoxide, and then was 1/50 diluted with a Ca^2+- and Mg^2+-free phosphate-bufferized physiological saline and its 20 μL was poured to a 96-well plate. […] Each of these cell suspensions was dividedly poured to the sample added plate in 180 μL/well and cultured in a 5% carbon dioxide incubator at 37° C. After 72 hours, 20 μL of WST-(HCT 116, a product of Dojin) or WST-1 (HUVEC, a product of Roche diagnostics) was added thereto to each well and the absorbance at 450 nm (reference wavelength: 650 nm) was measured. From the growth inhibition ratio of addition of the sample compound to no-addition of the sample compound as a reference, the 50% growth inhibition IC50) of the sample compound was calculated.
(§4) With respect to the group of representative compounds of the present invention, the IC50 values of HCT 116 and HUVEC (VEGF nondependent growth and VEGF dependent growth) are shown in Tables 5-1 to 5-3.

VEGF dependent HUVEC = test: Cell growth inhibition test, VEGF dependent HUVEC; assay type: cell-based; settings: Homo sapiens, 20 ng/mL of VEGF, 72 hours, WST-1, read-out: HUVEC (VEGF Dependence), 50% Growth Inhibition Concentration (IC50 value)
Experimental: as §1, §2, §3, §4

[2] = tested on: human colorectal cancer cell strain HCT 116; test: Cell growth inhibition test, HCT 116; assay type: cell-based; settings: 72 hours, read-out: HCT116, 50% Growth Inhibition Concentration (IC50 value)
Experimental: as §1, §2, §3, §4

[3] = molecular target: T1, recombinant Raf-1 protein (activated type GST-Raf-1) (Homo sapiens, UniProt P04049); test: RAF-1 enzyme inhibition test (33P incorporation into MEK 1 protein); assay type: biochemical; settings: 10 μM ATP, GST-MEK1 substrate, 30° C., 45 minutes; read-out: Raf-1 Enzyme Inhibition, 50% Enzyme Inhibition Concentration (IC50 value)
T1 construct: fused on or other part: GST tag fused to Raf-1
T1 sequence (P04049 349-648 limits assumed): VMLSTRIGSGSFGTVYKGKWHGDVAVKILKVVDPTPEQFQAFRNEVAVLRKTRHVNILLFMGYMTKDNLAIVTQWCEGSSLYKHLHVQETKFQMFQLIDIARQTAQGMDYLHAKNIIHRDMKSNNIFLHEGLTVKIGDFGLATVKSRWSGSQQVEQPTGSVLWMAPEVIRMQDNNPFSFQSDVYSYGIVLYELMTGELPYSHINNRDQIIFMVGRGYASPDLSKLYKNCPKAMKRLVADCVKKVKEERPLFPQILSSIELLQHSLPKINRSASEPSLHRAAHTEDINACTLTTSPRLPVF
Experimental: RAF-1 Enzyme Inhibition Test
With respect to the compounds relating to the present invention and the known compound (BAY 43-9006):
[drawing 660] the Raf-1 protein inhibition activity was measured. The enzymatic reaction was measured by incorporation of ^33P-phosphoric acid into MEK 1 protein by a recombinant Raf-1 protein. The activity was measured by preparing 50 μL of a reaction solution containing a dimethyl sulfoxide solution of the compound relating to the present invention or the compound BAY 43-9006 at a varied concentration [as the final concentration, the reaction solution containing […] of TRIS hydrochloric buffer (pH 7.5), 1 mM of dithiothreitol, 100 mM of sodium chloride, 10 mM of potassium fluoride, 1 mM of sodium vanadate, 10 mM of magnesium chloride, 10 μM of adenosine triphosphate (ATP, containing ^33P-ATP of 12580Bq), 2 μg of GST-MEK1 and 25 ng of an activated type GST-Raf-1]; keeping the reaction solution at 30° C. for 45 minutes; adding 100% trichloroacetic acid to the reaction solution in an amount twice the volume of the reaction solution to precipitate a proteinous component; recovering the precipitate on a glass filter; and measuring the radioactivity of the recovered product. The 50% inhibition concentration (IC50) was obtained from the inhibition ratio to a sample-free reference.
The compound BAYT 43-9006 was prepared on the basis of the description (Example 41) of WO 00/42012.

[4] = Solubility to fasted state simulated intestinal fluid; assay type: physicochemical; settings: fassif, kinetic from dmso stock, fasted state simulated intestinal fluid (pH 6.5), 37° C.
Experimental: Method of Measuring Solubility to Fasted State Simulated Intestinal Fluid
To a 96-well plate, 2 μL of a dimethyl sulfoxide solution of the compound relating to the present invention or that of the compound BAY 43-9006 was poured at one time, respectively, and fasted state simulated intestinal fluid (pH 6.5) was added 200 μL by 200 μL, and the plate was shaken at 37° C. for 20 hours. The solution was filtered with a membrane filter and 101 μL of the filtrate was transferred to an UV plate, and 100 μL of a mixed solution of ethanol:water=2:1 was added thereto. On the other hand, as a standard solution, 2 μL of a dimethyl sulfoxide solution was added to a solution containing 4 μL of dimethyl sulfoxide, 400 μL of ethanol and 200 μL of water and the obtained solution was transferred 101 μL by 101 μL to the UV plate and to this UV plate, the simulated fasting bile-containing intestinal juice (pH 6.5) was added 100 μL by 100 μL. The solubility was calculated by the following equation. Solubility=(absorbance of sample solution-blank)/(absorbance of standard solution-blank)×[…]
165 μL is a concentration of the standard solution.
Composition of Fasted State Simulated Intestinal Fluid
Fasted state simulated intestinal fluid was prepared in accordance with E. Galia et al., Pharm. Res., 698, 1998.
To about 90 mL of water, 161 mg of taurocholic acid, 59 mg of L-α-phosphatidylcholine, 0.39 g of potassium dihydrogenphosphate and 0.77 g of potassium chloride were added and the pH of the mixture solution […] and the mixture solution was filtered with a membrane filter.

## O=C(Nc1ccc(-n2cnc3cnccc32)cc1)Nc1ccc(Cl)c(C(F)(F)F)c1 [Table 1, Compound 1, 1-(4-chloro-3-(trifluoromethyl)phenyl)-3-(4-imidazo[4,5-c]pyridin-1-ylphenyl)urea]
[1]
  IC50: 2.1 µM
VEGF dependent HUVEC
  IC50: 0.092 µM
[2]
  IC50: 1.2 µM

## CNc1ncnc2c1ncn2-c1ccc(NC(=O)Nc2ccc(OCCN3CCOCC3)c(C(F)(F)F)c2)cc1 [Table 2, Compound 53, 1-[4-(6-(Methylamino)purin-9-yl)phenyl]-3-[4-(2-morpholin-4-yl-ethoxy)-3-(trifluoromethyl)phenyl]urea]
[1]
  IC50: 1.7 µM
VEGF dependent HUVEC
  IC50: 0.65 µM
[2]
  IC50: 1.9 µM

## CNc1ncnc2c1ncn2-c1ccc(NC(=O)Nc2ccc(CN3CCN(C(C)C)CC3)c(C(F)(F)F)c2)cc1 [Table 3, Compound 28, 1-[4-(4-Isopropyl-piperazin-1-ylmethyl)-3-(trifluoromethyl)phenyl]-3-[4-(6-(methylamino)purin-9-yl)phenyl]urea]
[1]
  IC50: 0.3 µM
VEGF dependent HUVEC
  IC50: 0.008 µM
[2]
  IC50: 0.2 µM

## CNc1ncnc2c1ncn2-c1ccc(NC(=O)Nc2ccc(N(C)C)c(C(F)(F)F)c2)cc1 [Table 2, Compound 42, 1-(4-Dimethylamino-3-(trifluoromethyl)phenyl)-3-[4-(6-(methylamino)purin-9-yl)phenyl]urea]
[1]
  IC50: 4 µM
VEGF dependent HUVEC
  IC50: 0.056 µM
[2]
  IC50: 1.8 µM

## CNc1ncnc2c1ncn2-c1ccc(N(O)C(=O)Nc2ccc(Cl)c(C(F)(F)F)c2)cc1 [Table 1, Compound 53, 3-(4-Chloro-3-(trifluoromethyl)phenyl)-1-hydroxy-1-[4-(6-(methylamino)pruin-9-yl)phenyl]urea]
[1]
  IC50: 2.8 µM
VEGF dependent HUVEC
  IC50: 0.44 µM
[2]
  IC50: 3.4 µM

## Nc1ncnc2c1ncn2-c1ccc(NC(=O)Nc2cc(Br)cc(C(F)(F)F)c2)cc1 [Table 2, Compound 43]
[1]
  IC50: 3.8 µM
VEGF dependent HUVEC
  IC50: 0.15 µM
[2]
  IC50: 1.8 µM

## CCN1CCN(Cc2ccc(NC(=O)Nc3ccc(-n4cnc5c(NC)ncnc54)cc3)cc2C(F)(F)F)CC1 [Table 3, Compound 14, 1-[4-(4-Ethyl-piperazin-1-ylmethyl)-3-(trifluoromethyl)phenyl]-3-[4-(6-(methylamino)purin-9-yl)phenyl]urea]
[1]
  IC50: 0.2 µM
VEGF dependent HUVEC
  IC50: 0.004 µM
[2]
  IC50: 0.3 µM

## CNc1ncnc2c1ncn2-c1ccc(NC(=O)Nc2ccc(CN3CCN(C)CC3)c(C(F)(F)F)c2)cc1 [Table 2, Compound 46, 1-[4-(6-(Methylamino)purin-9-yl)phenyl]-3-[4-(4-methylpiperazin-1-ylmethyl)-3-(trifluoromethyl)phenyl]urea]
[1]
  IC50: 0.13 µM
VEGF dependent HUVEC
  IC50: 0.0025 µM
[2]
  IC50: 0.24 µM

## CNc1ncnc2c1ncn2-c1ccc(NC(=O)Nc2ccc(CCCN(C)C)c(C(F)(F)F)c2)cc1 [Table 2, Compound 74]
[1]
  IC50: 0.9 µM
VEGF dependent HUVEC
  IC50: 0.083 µM
[2]
  IC50: 1.2 µM

## CNc1ncnc2c1ncn2-c1ccc(NC(=O)Nc2cccc(C(F)(F)F)c2)cc1 [Table 2, Compound 19, 1-[4-(6-(Methylamino)purin-9-yl)phenyl]-3-(3-(trifluoro-methyl)phenyl)urea]
[1]
  IC50: 1.9 µM
VEGF dependent HUVEC
  IC50: 0.057 µM
[2]
  IC50: 1.1 µM

## C=Cc1nc2c(NC(=O)NCCC)ncnc2n1-c1ccc(NC(=O)Nc2ccc(Cl)c(C(F)(F)F)c2)cc1 [Table 2, Compound 13, 1-(9-{4-[3-(4-Chloro-3-(tri-fluoromethyl)phenyl)ureido]-phenyl}-8-vinyl-9H-purin-6-yl)-3-propylurea]
[3]
  IC50: 0.015 µM

## Nc1ncnc2ncn(-c3ccc(NC(=O)Nc4ccc(Cl)c(C(F)(F)F)c4)cc3)c12 [Table 3, Compound 1, 1-[4-(6-(Aminopurin-7-yl)phenyl)-3-(4-chloro-3-(trifluoromethyl)phenyl)urea hydrochloride]
[3]
  IC50: 0.051 µM

## CN1CCN(Cc2ccc(NC(=O)Nc3ccc(-n4cnc5cnccc54)cc3)cc2C(F)(F)F)CC1 [Table 3, Compound 18, 1-(4-Imidazo[4,5-c]pyridin-1-yl-phenyl)-3-[4-(4-methyl-piperazin-1-ylmethyl)-3-(trifluoromethyl)phenyl]urea]
[1]
  IC50: 3.1 µM
VEGF dependent HUVEC
  IC50: 0.026 µM
[2]
  IC50: 2.7 µM

## CNc1ncnc2c1ncn2-c1ccc(NC(=O)Nc2cc(CCCN3CCCC3)cc(C(F)(F)F)c2)cc1 [Table 3, Compound 45, 1-[4-(6-(Methylamino)purin-9-yl)phenyl]-3-[3-(3-pyrrolidin-1-yl-propyl)-5-(trifluoromethyl)phenyl]-urea]
[3]
  IC50: 0.073 µM
[4]
  solubility at 20 h: 79 µg/mL (≈ 147 µM)

## CNc1ncnc2c1ncn2-c1ccc(NC(=O)Nc2ccc(CCCN3CCCCC3)c(C(F)(F)F)c2)cc1 [Table 2, Compound 78, 1-[4-(6-(Methylamino)purin-9-yl)phenyl]-3-[4-[3-piperidin-1-yl-propyl]-3-(trifluoromethyl)phenyl]-urea]
[3]
  IC50: 0.14 µM

## CNc1ncnc2c1ncn2-c1ccc(NC(=O)Nc2cc(C(=O)NCCN(C)C)cc(C(F)(F)F)c2)cc1 [Table 2, Compound 40, N-(2-Dimethylaminoethyl)-3-{3-[4-(6-(methylamino)purin-9-yl)phenyl]ureido}-5-(trifluoromethyl)benzamide]
[3]
  IC50: 0.075 µM

## CNc1ncnc2c1ncn2-c1ccc(NC(=O)Nc2cc(OC3CCN(C)CC3)cc(C(F)(F)F)c2)cc1 [Table 2, Compound 91, 1-[4-(6-(Methylamino)purin-9-yl)phenyl]-3-[3-(1-methyl-piperidin-4-yloxy)-5-(trifluoromethyl)phenyl]-urea]
[3]
  IC50: 0.27 µM

## CNc1ncnc2c1ncn2-c1ccc(NC(=O)Nc2cc(C(=O)NCC(O)CO)cc(C(F)(F)F)c2)cc1 (centres unmarked) [Table 2, Compound 57]
[3]
  IC50: 0.13 µM

## CNc1ncnc2c1ncn2-c1ccc(NC(=O)Nc2cc(CCN3CCCCC3)cc(C(F)(F)F)c2)cc1 [Table 3, Compound 30, 1-[4-(6-(Methylamino)purin-9-yl)phenyl]-3-[3-(2-piperidin-1-yl-ethyl)-5-(trifluoromethyl)phenyl]urea]
[3]
  IC50: 0.17 µM

## CN1CCN(Cc2cc(NC(=O)Nc3ccc(-n4cnc5ncnc(N)c54)cc3)cc(C(F)(F)F)c2)CC1 [Table 3, Compound 4]
[3]
  IC50: 0.053 µM
[4]
  solubility at 20 h: 219 µg/mL (≈ 417 µM)

## C=Cc1nc2c(N)ncnc2n1-c1ccc(NC(=O)Nc2cc(CN3CCN(C)CC3)cc(C(F)(F)F)c2)cc1 [Table 2, Compound 28]
[3]
  IC50: 0.069 µM
[4]
  solubility at 20 h: 238 µg/mL (≈ 431 µM)

## CNc1ncnc2c1ncn2-c1ccc(NC(=O)Nc2cc(CCN3CCCC3)cc(C(F)(F)F)c2)cc1 [Table 3, Compound 31, 1-[4-(6-(Methylamino)purin-9-yl)phenyl]-3-[3-(2-pyrrolidin-1-yl-ethyl)-5-(trifluoromethyl)phenyl]urea]
[3]
  IC50: 0.13 µM
